Assay results: patent US12484600B2, “Expanded foam for delivery of functional ingredients” (Boehringer Ingelheim Vetmedica GmbH, priority 2020, dated 2025)

Test system: Staphylococcus aureus NCTC 8325-4
Assay: Growth in LB broth flask culture with or without calcium chloride supplementation (visual growth, terminal plate count)
Type: cell-based
Settings: for critical limit in combination with 0.5% calcium chloride: procedures as for Table 8
Protocol: The test organism is Staphylococcus aureus NCTC 8325-4 as described in the methods and flask cultures are 100 ml of Luria-Bertani broth (LB broth) in 250 ml Erlenmeyer flasks. LB broth is used instead of brain Heart Infusion because it is more defined and limited in mineral content.
A standard inoculum is grown as described in the methods section and adjusted to a viable cell count of […] by dilution in sterile saline, 0.1 ml of this is used to aseptically inoculate 100 ml volumes of test media—the inoculum being […] in the test flask.
To determine the Minimum Inhibitory effect of hexametaphosphate a series of flasks with 100 ml of LB broth were each supplemented with concentrations of hexametaphosphate ranging from 0% W/W to 1% W/W, each flask was inoculated with a standard inoculum to achieve 1×10^3 viable bacterial in the flask, the flasks were incubated at 37° C. in a rotary incubator for 24 hours and evaluated visually for growth at that time.
Following visual evaluation, 0.5% sterile calcium chloride was added to all flasks and incubation continued for a further 24 hours.

Compound: O=C([O-])CC(O)(CC(=O)[O-])C(=O)[O-].[Na+].[Na+].[Na+] [tri-sodium citrate]
- critical limit in combination with 0.5% calcium chloride: 0.5%

Compound: O=c1ccn([C@@H]2O[C@H](COP(=O)(O)O)[C@@H](O)[C@H]2O)c(=O)[nH]1 [Uridine monophosphate]
- critical limit in combination with 0.5% calcium chloride: inconclusive

Compound: O=P1([O-])OP(=O)([O-])OP(=O)([O-])OP(=O)([O-])OP(=O)([O-])OP(=O)([O-])O1.[Na+].[Na+].[Na+].[Na+].[Na+].[Na+] [SHMP, sodium hexametaphosphate]
- 24 H CFU/ml (0.27% SHMP, LB broth): ~2 × 10^2 CFU/ml
- residual viability (0.27% hexametaphosphate, 24 hours): 2×10^2
- concentrations that remained inhibited post addition of calcium chloride (0.5% calcium chloride): at least 0.5%
- concentrations with full growth 24 hours post addition of calcium chloride (0.5% calcium chloride): ≤ 0.27%
- effect on microbial growth under conditions of excess calcium (0.5% calcium chloride, 0.27% SHMP, 0.375% functional emulsion): no inhibitory effect on microbial growth
- concentrations at which growth was apparently inhibited (LB broth, 24 hours, no calcium supplementation): ≥ 0.05%

Compound: [Ca+2].[Cl-].[Cl-] [Calcium, calcium chloride]
- 24 H CFU/ml (0.5% Calcium, LB broth): >10^9 CFU/ml
- effect on growth (0.5% calcium chloride supplement alone): no effect on growth

Compound: O=P([O-])([O-])O.[Na+].[Na+] [di-sodium orthophosphate]
- critical limit in combination with 0.5% calcium chloride: 0.75%

Compound: O=P([O-])([O-])O[C@H]1[C@H](OP(=O)([O-])O)[C@H](OP(=O)([O-])[O-])[C@H](OP(=O)([O-])O)[C@@H](OP(=O)([O-])[O-])[C@@H]1OP(=O)([O-])O.[Na+].[Na+].[Na+].[Na+].[Na+].[Na+].[Na+].[Na+].[Na+] [sodium phytate]
- critical limit in combination with 0.5% calcium chloride: 0.2%
